# Values quoted from earlier work as cited in US9308174B2, “Lyophilized formulations of bendamustine hydrochloride” (CHEMI S.P.A., priority 2013, dated 2016).
# Where two headings read alike, the source gives them in different places.
# What was measured:
# [1] = water, 5° C.
compound,measurement,setting,value
"Cl.Cn1c(CCCC(=O)O)nc2cc(N(CCCl)CCCl)ccc21 [bendamustine hydrochloride, Bendamustine hydrochloride]",time to 10% degradation of the active ingredient,"aqueous solution 0.25 mg/ml, room temperature",4.2 h
same,time to lose 10% of its title (t90),solution at 4° C.,119.5 h
same,time to lose 10% of its title (t90),solution at 23° C.,9.2 h
same,HP1 percentage,[1]; after 3 hours,0.86%
same,HP1 percentage,[1]; after 6 hours,3.81%
same,appearance of the solution,[1]; after 6 hours,formation of a precipitate
same,HP1 percentage,[1]; time=0,0.6%
